The test system of one data set is bleeding stomach ulcer. Briefly: Ulcer development (bleeding stomach ulcer provoked by oral application, mean ulcer factor). It counts as in vivo, Wistar-rats. The following applies: for ED50: Rattus norvegicus, read-out: oral ED50. On the procedure: The development of the ulcer was determined in accordance with
L. Mariani, "Eur. J. Toxicol.
R. Menguy & L. Desbaillets, "Proc. Soc. exp.
Ten male and ten female Wistar-rats (120 to 150 grams, in weight) which have not fed for 16 hours, were used for these tests. The bleeding stomach ulcer was provoked by oral application of the active substance. After 3.5 hours, the animals are killed and the stomach extracted, opened along the wide curvature and stretched onto a "Styropor" plate. The mean ulcer factor of the test and of the control group are determined. The variation is weighted in percentages as prevention of the ulcer formation.

A further data set relates to rat paw oedema. Briefly: rat-paw-oedema test (carragenin). It counts as in vivo. The following applies: for ED50: 3 h, read-out: oral ED50; for Prevention of Oedema: Table VII, 12 animals; for Effectiveness applied to Rat Paw Oedema: Table VIII, Dosage 10.0 mg/kg KGW, 12 Animals, prevention of oedema in percentages. On the procedure:
On one hind paw of each rat (weight 200 to 250 grams) an oedema was caused to develop by the "subplantane" application of carragenin (0.5% in a 0.9% NaCl solution) in the amount of 0.1 ml solution per paw.
After the application of the test substance, its volume not to exceed 10 ml per kg of body weight, the volume of the paw is determined in an overflow ("Ueberlauf"). After three hours the final value is ascertained. The test is carried out for every dosage by using 10 test and 10 control animals of one sex and repeated with the identical number of animals of the other sex. For the purpose of evaluation, the prevention of the oedema is expressed in percentages relative to the control group.

The mark [1] stands for this setting: reference substances, rat-paw-oedema test, oral.
Setting [2] is: Table V, oral, Dosage One cc per mg/kg of Body Weight (KGW), by proportion Indometacine:Phospholipon 100.

Where two headings read alike, the source gives them in different places.

The text below walks through data of US4421747A, “Inflammation-preventing pharmaceutical composition of oral administration” (A. Nattermann & Cie. GmbH, priority 1981, dated 1983).

For `CC(=O)Oc1ccccc1C(=O)O` [Acetyl-Salicylic Acid, acetyl-salicylic acid], the “Ulcer Index” value with bleeding stomach ulcer (Table I, oral, 200 mg/kg KGW, mixture molar ratio Acetyl-Salicylic Acid:Phospholipon 100 = 2:1, 3.5 h, n=10) is listed as 1.20 ± 0.20; with bleeding stomach ulcer (Table I, oral, 400 mg/kg KGW, mixture molar ratio Acetyl-Salicylic Acid:Phospholipon 100 = 2:1, 3.5 h, n=10), 1.10 ± 0.50; in the data set on bleeding stomach ulcer (Table I, oral, 800 mg/kg KGW, mixture molar ratio Acetyl-Salicylic Acid:Phospholipon 100 = 2:1, 3.5 h, n=10), 1.20 ± 0.20. Moreover, the “Incidence of Ulcers” value is 70% with bleeding stomach ulcer (Table I, oral, 200 mg/kg KGW, without resp. with p^+ (Phospholipon 100, 2:1)); 50% with bleeding stomach ulcer (Table I, oral, 400 mg/kg KGW, without resp. with p^+ (Phospholipon 100, 2:1)); 80% in the data set with bleeding stomach ulcer (Table I, oral, 800 mg/kg KGW, without resp. with p^+ (Phospholipon 100, 2:1)).
As for `CC(=O)OCC(=O)[C@@]1(O)CC[C@H]2[C@@H]3CCC4=CC(=O)CC[C@]4(C)[C@H]3[C@@H](O)C[C@@]21C` [Hydrocortisoneacetate], in the data set on rat paw oedema (setting [1]), the ED50 (commonly the dose at which the effect has come halfway, by size or by number of responders) turned out to be 19 mg/kg.
As for `CC(C)Cc1ccc(C(C)C(=O)O)cc1` (stereo not shown) [Ibuprofen, 2-(4-isobutylphenyl)-propinic acid], the “Incidence of Ulcers” value in the data set on bleeding stomach ulcer (Table VI, oral, 5 mg/kg KGW, one value printed for without and with p^+ (Phospholipon 100, 1:1)) stood at 20%; in the data set on bleeding stomach ulcer (Table VI, oral, 10 mg/kg KGW, without resp. with p^+ (Phospholipon 100, 1:1)), 20%; with bleeding stomach ulcer (Table VI, oral, 20 mg/kg KGW, without resp. with p^+ (Phospholipon 100, 1:1)), 40%; in the data set on bleeding stomach ulcer (Table VI, oral, 30 mg/kg KGW, without resp. with p^+ (Phospholipon 100, 1:1)), 50%. Moreover, the “Ulcer Index” value was determined as 0.20 ± 0.13 in the data set on bleeding stomach ulcer (Table VI, rat, oral, 5 mg/kg KGW, mixture molar ratio Ibuprofen:Phospholipon 100 = 1:1, 3.5 h, n=10); 0.30 ± 0.15 with bleeding stomach ulcer (Table VI, rat, oral, 10 mg/kg KGW, mixture molar ratio Ibuprofen:Phospholipon 100 = 1:1, 3.5 h, n=10); 0.50 ± 0.22 with bleeding stomach ulcer (Table VI, rat, oral, 20 mg/kg KGW, mixture molar ratio Ibuprofen:Phospholipon 100 = 1:1, 3.5 h, n=10); 0.71 ± 0.30 in the data set with bleeding stomach ulcer (Table VI, rat, oral, 30 mg/kg KGW, mixture molar ratio Ibuprofen:Phospholipon 100 = 1:1, 3.5 h, n=10).
Take `COc1ccc2c(c1)c(CC(=O)O)c(C)n2C(=O)c1ccc(Cl)cc1` [Indometacine]: the “Ulcer Index” value in the data set with bleeding stomach ulcer (Table III, oral, 5 mg/kg KGW, mixture molar ratio Indometacine:Phospholipon 100 = 2:1, 3.5 h, n=10) came to 1.20 ± 0.30; in the data set with bleeding stomach ulcer (Table III, oral, 10 mg/kg KGW, mixture molar ratio Indometacine:Phospholipon 100 = 2:1, 3.5 h, n=10), 1.90 ± 0.90; with bleeding stomach ulcer (Table III, oral, 20 mg/kg KGW, mixture molar ratio Indometacine:Phospholipon 100 = 2:1, 3.5 h, n=10), 1.50 ± 0.40; in the data set with bleeding stomach ulcer (Table IV, rat, oral, 5 mg/kg KGW, mixture molar ratio Indometacine:Phospholipon 45 = 1:2, 3.5 h, n=10), 2.10 ± 0.36; in the data set with bleeding stomach ulcer (Table IV, rat, oral, 10 mg/kg KGW, mixture molar ratio Indometacine:Phospholipon 45 = 1:2, 3.5 h, n=10), 2.20 ± 0.42; in the data set with bleeding stomach ulcer (Table IV, rat, oral, 20 mg/kg KGW, mixture molar ratio Indometacine:Phospholipon 45 = 1:2, 3.5 h, n=10) it was 2.30 ± 0.47. Also, the “Ulcer Index” value in the data set on bleeding stomach ulcer (Table IV, rat, oral, 30 mg/kg KGW, mixture molar ratio Indometacine:Phospholipon 45 = 1:2, 3.5 h, n=10) came out at 2.70 ± 0.30; with bleeding stomach ulcer (setting [2]), 2.60 ± 0.22. The “Incidence of Ulcers” value stood at 70% in the data set on bleeding stomach ulcer (Table III, oral, 5 mg/kg KGW, without resp. with p^+ (Phospholipon 100, 2:1)); 90% in the data set on bleeding stomach ulcer (Table III, oral, 10 mg/kg KGW, without resp. with p^+ (Phospholipon 100, 2:1)); 100% in the data set with bleeding stomach ulcer (Table III, oral, 20 mg/kg KGW, without resp. with p^+ (Phospholipon 100, 2:1)); 80% in the data set on bleeding stomach ulcer (Table IV, oral, 5 mg/kg KGW, without resp. with p^+ (Phospholipon 45, 1:2)); 90% in the data set with bleeding stomach ulcer (Table IV, oral, 10 mg/kg KGW, one value printed for without and with p^+ (Phospholipon 45, 1:2)); 100% in the data set on bleeding stomach ulcer (Table IV, oral, 20 mg/kg KGW, one value printed for without and with p^+ (Phospholipon 45, 1:2)). Further, in the data set on bleeding stomach ulcer (Table IV, oral, 30 mg/kg KGW, without resp. with p^+ (Phospholipon 45, 1:2)), the “Incidence of Ulcers” value is on record as 80%. The “Variation of Mean Ulcer Factor: Indometacine With p^+ Versus Without p^+” value in the data set with bleeding stomach ulcer (setting [2]) was found to be 0%. Further, the 50% effective dose (ED50) with rat paw oedema (Rattus norvegicus, po) worked out at 7.24 mg/kg. Besides, the “Prevention of Oedema” value in the data set on rat paw oedema (Indometacine 3.16 mg/kg p.o., mixture with Phospholipon 100 7.1 mg/kg p.o.) is given as -47.3%; with rat paw oedema (Indometacine 10 mg/kg p.o., mixture with Phospholipon 100 22.4 mg/kg p.o.) it was -37.8%. Further, the “Effectiveness applied to Rat Paw Oedema” value with rat paw oedema (3 hours elapsed after application) was determined as 32; with rat paw oedema (4 hours elapsed after application), 40; in the data set on rat paw oedema (5 hours elapsed after application), 28; in the data set with rat paw oedema (6 hours elapsed after application) it was 27.
Turning to `CCCCC1C(=O)N(c2ccccc2)N(c2ccccc2)C1=O` [Phenylbutazone, 4-butyl-1,2-diphenylpyrazolidine-3,5-dion], the “Ulcer Index” value in the data set on bleeding stomach ulcer (Table II, oral, 25 mg/kg KGW, mixture molar ratio Phenylbutazone:Phospholipon 100 = 2:1, 3.5 h, n=10) was found to be 0.70 ± 0.05; in the data set with bleeding stomach ulcer (Table II, oral, 50 mg/kg KGW, mixture molar ratio Phenylbutazone:Phospholipon 100 = 2:1, 3.5 h, n=10) it was 1.60 ± 0.42; in the data set with bleeding stomach ulcer (Table II, oral, 100 mg/kg KGW, mixture molar ratio Phenylbutazone:Phospholipon 100 = 2:1, 3.5 h, n=10) it was 1.80 ± 0.84; with bleeding stomach ulcer (Table II, oral, 200 mg/kg KGW, mixture molar ratio Phenylbutazone:Phospholipon 100 = 2:1, 3.5 h, n=10) it was 1.90 ± 0.66. For the same compound, the “Incidence of Ulcers” value is 70% in the data set with bleeding stomach ulcer (Table II, oral, 25 mg/kg KGW, without resp. with p^+ (Phospholipon 100, 2:1)); 60% in the data set on bleeding stomach ulcer (Table II, oral, 50 mg/kg KGW, without resp. with p^+ (Phospholipon 100, 2:1)); 100% in the data set with bleeding stomach ulcer (Table II, oral, 100 mg/kg KGW, without resp. with p^+ (Phospholipon 100, 2:1)); 80% in the data set on bleeding stomach ulcer (Table II, oral, 200 mg/kg KGW, one value printed for without and with p^+ (Phospholipon 100, 2:1)). The 50% effective dose (ED50) in the data set on rat paw oedema (setting [1]) was determined as 100 mg/kg.
As for `CN1C2CCC1CC(OC(=O)C(CO)c1ccccc1)C2` (stereo not shown) [atropinesulphate], the 50% effective dose (ED50) in the data set with bleeding stomach ulcer (po) is 17.1 mg/kg.
Turning to `CN(C)CCCN1c2ccccc2Sc2ccc(Cl)cc21` [chloropromazine], in the data set on bleeding stomach ulcer (reference substances, ulcer test, oral), the 50% effective dose (ED50) turned out to be 105 mg/kg.
